Assay results reported in US11352339B2 (MISSION THERAPEUTICS LIMITED, priority 2016, dated 2022).

These compounds were tested against USP30 (Homo sapiens (Human), UniProt Q70CQ3) (assay: USP30 Biochemical IC50 Assay). Details: fluorescence polarisation, TAMRA labelled peptide linked to ubiquitin; 30 min pre-incubation, read after 2 h; read-out: IC50 range.
Sequence of USP30 (Q70CQ3 57-517): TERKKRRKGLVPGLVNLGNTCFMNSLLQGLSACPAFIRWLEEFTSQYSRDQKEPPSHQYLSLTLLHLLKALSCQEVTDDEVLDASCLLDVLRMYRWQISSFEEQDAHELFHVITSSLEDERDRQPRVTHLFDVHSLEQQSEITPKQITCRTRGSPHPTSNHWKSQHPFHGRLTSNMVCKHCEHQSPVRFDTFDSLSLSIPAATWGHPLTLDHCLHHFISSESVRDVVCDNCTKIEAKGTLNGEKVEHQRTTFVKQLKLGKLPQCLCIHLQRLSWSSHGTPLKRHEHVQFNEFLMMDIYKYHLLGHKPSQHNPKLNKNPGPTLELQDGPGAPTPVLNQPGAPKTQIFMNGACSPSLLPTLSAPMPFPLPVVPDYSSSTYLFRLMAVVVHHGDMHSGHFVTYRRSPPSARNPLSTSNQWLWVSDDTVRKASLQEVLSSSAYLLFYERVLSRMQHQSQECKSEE
Procedure: Reactions were performed in duplicate in black 384 well plates (small volume, Greiner 784076) in a final reaction volume of 21 μl. Either 1 μl of 50% DMSO or diluted compound was added to the plate. […] Enzyme and compound were incubated for 30 min at room temp. Reactions were initiated by the addition of 50 nM of TAMRA labelled peptide linked to ubiquitin via an iso-peptide bond as fluorescence polarisation substrate. Reactions were read immediately after addition of substrate and following a 2 h incubation at room temperature. Readings were performed on a Pherastar Plus (BMG Labtech). λ Excitation 540 nm; λ Emission 590 nm.
In the case of `N#CN1CCC(c2[nH]nc(-c3cccc(-c4ccccc4)c3)c2F)C1` (stereo not shown) [Example 15, 3-(3-([1,1′-Biphenyl]-3-yl)-4-fluoro-1H-pyrazol-5-yl)pyrrolidine-1-carbonitrile], the IC50 is reported as less than 0.1 µM. In the case of `N#CN1CCC(c2cc(-c3ccc4ccccc4c3)n[nH]2)C1` (stereo not shown) [Example 18, 3-(3-(Naphthalen-2-yl)-1H-pyrazol-5-yl)pyrrolidine-1-carbonitrile], the IC50 is reported as 0.1 to 1 µM. Compound `C[C@H]1CN(C#N)C[C@@H]1c1[nH]nc(-c2cccc(-c3ccccc3)c2)c1F` [Example 22] has an IC50 of less than 0.1 µM. Work on `C[C@H]1CN(C#N)C[C@@H]1c1[nH]nc(-c2cccc(-c3ccccc3)c2)c1F` [Example 23] yielded an IC50 of 0.1 to 1 µM. `C[C@@H]1CN(C#N)C[C@H]1c1cc(-c2cccc(-c3ccccc3)c2)nn1C` [Example 24] showed an IC50 of 0.1 to 1 µM. Work on `C[C@@H]1CN(C#N)C[C@H]1c1cc(-c2cccc(-c3ccccc3)c2)n(C)n1` [Example 25] yielded an IC50 of 0.1 to 1 µM. `N#CN1CCC(c2cc(-c3cccc(-c4cccnc4)c3)n[nH]2)C1` (stereo not shown) [Example 26, 3-(3-(3-(Pyridin-3-yl)phenyl)-1H-pyrazol-5-yl)pyrrolidine-1-carbonitrile] gave an IC50 of 0.1 to 1 µM. `CC1CC(c2cc(-c3cccc(-c4ccccc4)c3)n[nH]2)CN1C#N` (stereo not shown) [Example 27, 4-(3-([1,1′-Biphenyl]-3-yl)-1H-pyrazol-5-yl)-2-methylpyrrolidine-1-carbonitrile] showed an IC50 of 1 to 10 µM. `N#CN1CCC(c2cc(-c3cccc(-c4ccncc4)c3)n[nH]2)C1` (stereo not shown) [Example 28, 3-(3-(3-(Pyridin-4-yl)phenyl)-1H-pyrazol-5-yl)pyrrolidine-1-carbonitrile] showed an IC50 of 0.1 to 1 µM. For `N#CN1CCC(c2cc(-c3cccc(-c4ccc(Cl)cc4)c3)n[nH]2)C1` (stereo not shown) [Example 29, 3-(3-(4′-Chloro-[1,1′-biphenyl]-3-yl)-1H-pyrazol-5-yl)pyrrolidine-1-carbonitrile], the IC50 was 0.1 to 1 µM. `COc1ccc(-c2cccc(-c3cc(C4CCN(C#N)C4)[nH]n3)c2)cc1` (stereo not shown) [Example 30, 3-(3-(4′-Methoxy-[1,1′-biphenyl]-3-yl)-1H-pyrazol-5-yl)pyrrolidine-1-carbonitrile] gave an IC50 of 0.1 to 1 µM. In the case of `Cn1cc(-c2cccc(-c3cc(C4CCN(C#N)C4)n[nH]3)c2)cn1` (stereo not shown) [Example 31, 3-(5-(3-(1-Methyl-1H-pyrazol-4-yl)phenyl)-1H-pyrazol-3-yl)pyrrolidine-1-carbonitrile], the IC50 is reported as 1 to 10 µM. `N#CN1CC[C@@H](c2cc(-c3cccc(-c4cnoc4)c3)[nH]n2)C1` [Example 32, 3-(5-(3-(Isoxazol-4-yl)phenyl)-1H-pyrazol-3-yl)pyrrolidine-1-carbonitrile] gave an IC50 of 1 to 10 µM. For `N#CN1CCC(c2cc(-c3cccc(-c4cnoc4)c3)[nH]n2)C1` (stereo not shown) [Example 33, 3-(5-(3-(Isoxazol-4-yl)phenyl)-1H-pyrazol-3-yl)pyrrolidine-1-carbonitrile], the IC50 was 0.1 to 1 µM. `Cn1cnc(-c2cccc(-c3cc(C4CCN(C#N)C4)n[nH]3)c2)c1` (stereo not shown) [Example 34, 3-(5-(3-(1-Methyl-1H-imidazol-4-yl)phenyl)-1H-pyrazol-3-yl)pyrrolidine-1-carbonitrile] gave an IC50 of 1 to 10 µM. For `N#CN1CCC(c2cc(-c3ccc(-c4ccccc4)cc3)[nH]n2)C1` (stereo not shown) [Example 35, 3-(5-([1,1′-Biphenyl]-4-yl)-1H-pyrazol-3-yl)pyrrolidine-1-carbonitrile], the IC50 was 0.1 to 1 µM. `N#CN1CCC(c2cc(-c3cncc(-c4ccccc4)c3)[nH]n2)C1` (stereo not shown) [Example 36, 3-(5-(5-Phenylpyridin-3-yl)-1H-pyrazol-3-yl)pyrrolidine-1-carbonitrile] was tested, and the IC50 was 0.1 to 1 µM. `N#CN1CCC(c2cc(-c3cccc(-c4ccccc4)n3)[nH]n2)C1` (stereo not shown) [Example 37, 3-(5-(6-Phenylpyridin-2-yl)-1H-pyrazol-3-yl)pyrrolidine-1-carbonitrile] was tested, and the IC50 was 0.1 to 1 µM. `N#CN1CCC(c2cc(-c3ccnc(-c4ccccc4)c3)[nH]n2)C1` (stereo not shown) [Example 38, 3-(5-(2-Phenylpyridin-4-yl)-1H-pyrazol-3-yl)pyrrolidine-1-carbonitrile] showed an IC50 of 0.1 to 1 µM. `N#CN1CCC(c2cc(-c3ccc(-c4ccccc4)nc3)n[nH]2)C1` (stereo not shown) [Example 40] showed an IC50 of 0.1 to 1 µM. `N#CN1CCC(c2cc(-c3ccnc(-c4cccnc4)c3)n[nH]2)C1` (stereo not shown) [Example 47, 3-(3-([2,3′-Bipyridin]-4-yl)-1H-pyrazol-5-yl)pyrrolidine-1-carbonitrile] gave an IC50 of 0.1 to 1 µM. `N#CN1CCC(c2cc(NC(=O)c3ccccc3)n[nH]2)C1` (stereo not shown) [Example 50, N-(3-(1-Cyanopyrrolidin-3-yl)-1H-pyrazol-5-yl)benzamide] showed an IC50 of 0.1 to 1 µM. For `N#CN1CCC(c2cc(NC(=O)Cc3ccccc3)n[nH]2)C1` (stereo not shown) [Example 51], the IC50 was 0.1 to 1 µM. Work on `N#CN1CCC(c2noc(-c3ccc(-c4ccccc4)[nH]c3=O)n2)C1` (stereo not shown) [Example 52, 3-(5-(2-Oxo-6-phenyl-1,2-dihydropyridin-3-yl)-1,2,4-oxadiazol-3-yl)pyrrolidine-1-carbonitrile] yielded an IC50 of 1 to 10 µM. Compound `N#CN1CCC(c2noc(-c3cc(-c4ccccc4)nc4ccccc34)n2)C1` (stereo not shown) [Example 53, 3-(5-(2-Phenylquinolin-4-yl)-1,2,4-oxadiazol-3-yl)pyrrolidine-1-carbonitrile] has an IC50 of 0.1 to 1 µM. Compound `N#CN1CCC(c2noc(-c3ccc4ncsc4c3)n2)C1` (stereo not shown) [Example 54, 3-(5-(Benzo[d]thiazol-6-yl)-1,2,4-oxadiazol-3-yl)pyrrolidine-1-carbonitrile] has an IC50 of 0.1 to 1 µM. Compound `N#CN1CCC(c2noc(-c3cccc(-c4ccccc4)c3)n2)C1` (stereo not shown) [Example 55] has an IC50 of less than 0.1 µM. Work on `Cc1ccc2cc(-c3nc(C4CCN(C#N)C4)no3)ccc2n1` (stereo not shown) [Example 56, 3-(5-(2-Methylquinolin-6-yl)-1,2,4-oxadiazol-3-yl)pyrrolidine-1-carbonitrile] yielded an IC50 of 1 to 10 µM. Compound `N#CN1CCC(c2noc(-c3cc(Cl)cc(OC(F)(F)F)c3)n2)C1` (stereo not shown) [Example 57, 3-(5-(3-Chloro-5-(trifluoromethoxy)phenyl)-1,2,4-oxadiazol-3-yl)pyrrolidine-1-carbonitrile] has an IC50 of 0.1 to 1 µM. Work on `COc1cc(-c2nc(C3CCN(C#N)C3)no2)nc2ccccc12` (stereo not shown) [Example 58, 3-(5-(4-Methoxyquinolin-2-yl)-1,2,4-oxadiazol-3-yl)pyrrolidine-1-carbonitrile] yielded an IC50 of 1 to 10 µM. For `N#CN1CCC(c2noc(-c3ccccc3OCc3ccccc3)n2)C1` (stereo not shown) [Example 59, 3-(5-(2-(Benzyloxy)phenyl)-1,2,4-oxadiazol-3-yl)pyrrolidine-1-carbonitrile], the IC50 was 1 to 10 µM. In the case of `N#CN1CCC(c2noc(-c3ccc(Br)cc3)n2)C1` (stereo not shown) [Example 60, 3-(5-(4-Bromophenyl)-1,2,4-oxadiazol-3-yl)pyrrolidine-1-carbonitrile], the IC50 is reported as 1 to 10 µM. Compound `N#CN1CCC(c2noc(-c3ccc(N4CCOCC4)cc3)n2)C1` (stereo not shown) [Example 61, 3-(5-(4-Morpholinophenyl)-1,2,4-oxadiazol-3-yl)pyrrolidine-1-carbonitrile] has an IC50 of 1 to 10 µM. With `CO[C@@H]1CCN(c2ccc(-c3nc(C4CCN(C#N)C4)no3)cc2)C1` (stereo partly drawn) [Example 62, 3-(5-(4-((R)-3-Methoxypyrrolidin-1-yl)phenyl)-1,2,4-oxadiazol-3-yl)pyrrolidine-1-carbonitrile] the IC50 was 1 to 10 µM. In the case of `N#CN1CC[C@@H](c2noc(-c3cc(-c4ccccc4)ccn3)n2)C1` [Example 63, (R)-3-(5-(4-Phenylpyridin-2-yl)-1,2,4-oxadiazol-3-yl)pyrrolidine-1-carbonitrile], the IC50 is reported as 0.1 to 1 µM. For `N#CN1CC[C@@H](c2noc(C3CCN(c4ncccn4)CC3)n2)C1` [Example 64, (R)-3-(5-(1-(Pyrimidin-2-yl)piperidin-4-yl)-1,2,4-oxadiazol-3-yl)pyrrolidine-1-carbonitrile], the IC50 was 1 to 10 µM. For `N#CN1CC[C@@H](c2noc(-c3ccnc(N4CCc5ccccc5C4)c3)n2)C1` [Example 65, (R)-3-(5-(2-(3,4-Dihydroisoquinolin-2(1H)-yl)pyridin-4-yl)-1,2,4-oxadiazol-3-yl)pyrrolidine-1-carbonitrile], the IC50 was 1 to 10 µM. With `Cn1cc(-c2ccc(-c3nc(C4CCN(C#N)C4)no3)cc2)cn1` (stereo not shown) [Example 66, 3-(5-(4-(1-Methyl-1H-pyrazol-4-yl)phenyl)-1,2,4-oxadiazol-3-yl)pyrrolidine-1-carbonitrile] the IC50 was 0.1 to 1 µM. `N#CN1CCCC1c1noc(-c2ccc(-c3ccccc3)cc2)n1` (stereo not shown) [Example 67, 2-(5-([1,1′-Biphenyl]-4-yl)-1,2,4-oxadiazol-3-yl)pyrrolidine-1-carbonitrile] gave an IC50 of 1 to 10 µM. `N#CN1CCCC1c1noc(-c2cccc(-c3ccccc3)c2)n1` (stereo not shown) [Example 68, 2-(5-([1,1′-Biphenyl]-3-yl)-1,2,4-oxadiazol-3-yl)pyrrolidine-1-carbonitrile] was tested, and the IC50 was 0.1 to 1 µM. With `N#CN1CCC(c2noc(C3CCN(c4ccccc4)C3)n2)C1` (stereo not shown) [Example 69, 3-(5-(1-Phenylpyrrolidin-3-yl)-1,2,4-oxadiazol-3-yl)pyrrolidine-1-carbonitrile] the IC50 was 0.1 to 1 µM. With `Cn1cc(-c2cc(-c3nc([C@@H]4CCN(C#N)C4)no3)ccc2F)cn1` [Example 70, (R)-3-(5-(4-Fluoro-3-(1-methyl-1H-pyrazol-4-yl)phenyl)-1,2,4-oxadiazol-3-yl)pyrrolidine-1-carbonitrile] the IC50 was 0.1 to 1 µM. `COc1cc(-c2nc([C@@H]3CCN(C#N)C3)no2)ccc1-c1cnn(C)c1` [Example 71, (R)-3-(5-(3-Methoxy-4-(1-methyl-1H-pyrazol-4-yl)phenyl)-1,2,4-oxadiazol-3-yl)pyrrolidine-1-carbonitrile] was tested, and the IC50 was 0.1 to 1 µM. `N#Cc1cccc(-c2ccc3nc(C4CCN(C#N)C4)[nH]c3c2)c1` (stereo not shown) [Example 72, 3-(6-(3-Cyanophenyl)-1H-benzo[d]imidazol-2-yl)pyrrolidine-1-carbonitrile] was tested, and the IC50 was 0.1 to 1 µM. With `N#CN1CCC(c2nc3ccc(-c4ccccc4OCc4ccccc4)cc3[nH]2)C1` (stereo not shown) [Example 73, 3-(6-(2-(Benzyloxy)phenyl)-1H-benzo[d]imidazol-2-yl)pyrrolidine-1-carbonitrile] the IC50 was 0.1 to 1 µM. `N#CN1CCC(c2nc3ccc(-c4ccc(C(N)=O)cc4)cc3[nH]2)C1` (stereo not shown) [Example 74, 4-(2-(1-Cyanopyrrolidin-3-yl)-1H-benzo[d]imidazol-6-yl)benzamide] showed an IC50 of 0.1 to 1 µM.
